Data on nine compounds can be found in patent publication US6800628B2, “N-substituted 4-((-4′-aminobenzoyl)-oxymethyl)-piperidines having gastric prokinetic properties” (Janssen Pharmaceutica N.V., priority 1996, dated 2004).

For data set [1], the system named is conscious dogs. The data set can be described thus: Gastric emptying of an acaloric liquid test meal delayed by administration of lidamidine, in conscious dogs. The conditions noted are these: gastric emptying of a liquid meal delayed by lidamidine in conscious dog; dose of 0.04 mg/kg of the test compound. Format: in vivo, beagle dogs. The text has this:
“Gastric Emptying of an Acaloric Liquid Test Meal Delayed by […] of Lidamidine, in Conscious Dogs” Test
Female beagle dogs, weighing 7-14 kg, were trained to stand quietly in Pavlov frames. They were implanted with a gastric cannula under general anaesthesia and aseptic precautions. After a median laparatomy, an incision was made through the gastric wall in the longitudinal direction between the greater and the lesser curve, 2 cm above the nerves of Latarjet. The cannula was secured to the gastric wall by means of a double purse string suture and brought out via a stab wound at the left quadrant of the hypochondrium. Dogs were allowed a recovery period of at least two weeks. […]
In the 1 ml samples of the gastric contents, the glucose concentrations were measured on a Hitachi 717 automatic analyser by the hexokinase method (Schmidt, 1961).
Curves were fitted to the measurement points (glucose vs time) using weighed non-linear regression analysis. Gastric emptying was quantified as the time needed to empty 70% of the meal (t70%). The control emptying time was calculated as the mean t70% of the last 5 solvent experiments of the same dog. Acceleration of delayed gastric emptying (Δt) was calculated as the time difference between t70% compound and t70% solvent. To correct for variations in emptying rate between dogs, Δt was expressed as % of t70% solvent (Schuurkes et al, 1992).

Data set [2] has as its target 5 HT4 receptor (Homo sapiens, UniProt Q13639). To be noted: stated for prior art compounds; cited from earlier work.

Sequence of 5 HT4 receptor (Q13639 whole entry): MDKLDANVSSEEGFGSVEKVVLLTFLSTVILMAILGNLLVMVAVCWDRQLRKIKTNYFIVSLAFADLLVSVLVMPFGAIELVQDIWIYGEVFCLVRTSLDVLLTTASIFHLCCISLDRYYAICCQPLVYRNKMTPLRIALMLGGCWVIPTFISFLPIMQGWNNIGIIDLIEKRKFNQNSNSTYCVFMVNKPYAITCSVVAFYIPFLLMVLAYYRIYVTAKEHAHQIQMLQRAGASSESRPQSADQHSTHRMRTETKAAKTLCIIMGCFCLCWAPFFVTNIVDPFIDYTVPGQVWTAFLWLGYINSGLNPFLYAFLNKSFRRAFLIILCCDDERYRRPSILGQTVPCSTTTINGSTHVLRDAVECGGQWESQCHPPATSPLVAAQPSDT

In the case of `Cc1nccnc1NCCN1CCC(COC(=O)c2cc(Cl)c(N)c3c2OC(C)(C)C3)CC1` [Compound 6, [1-[2-[(3-methyl-2-pyrazinyl)amino]ethyl]-4-piperidinyl]methyl 4-amino-5-chloro-2,3-dihydro-2,2-dimethyl-7-benzofurancarboxylate], the “Acceleration (Δt/t)” value in data set [1] is listed as −0.41.

Take `CC(O)CCN1CCC(COC(=O)c2cc(Cl)c(N)c3c2OCCO3)CC1` (stereo not drawn) [[1-(3-hydroxybutyl)-4-piperidinyl]methyl-8-amino-7-chloro-1,4-benzodioxan-5-carboxylate]: the “5 HT4 receptor activity (agonistic / antagonistic)” value in data set [2] is reported as 5 HT4 receptor antagonistic activity.

As to `Nc1c(Cl)cc(C(=O)OCC2CCN(Cc3cccnc3)CC2)c2c1OCCO2` [5-(1-(3-pyridylmethyl)-4-piperidinyl)methyl-8-amino-7-chloro-1,4-benzo-dioxancarboxylate], the “5 HT4 receptor activity (agonistic / antagonistic)” value in data set [2] is 5 HT4 receptor antagonistic activity.

Regarding `CCCCN1CCC(OC(=O)c2cc(Cl)c(N)c3c2OCCO3)CC1` [8-amino-7-chloro-1,4-benzodioxan-5-(1-butyl-4-piperidinyl)carboxylate], the “5 HT4 receptor activity (agonistic / antagonistic)” value in data set [2] was 5 HT4 receptor antagonistic activity.

The compound `COc1cc(N)c(Cl)cc1C(=O)OCC1CCN(CCCOc2ccc(F)cc2)CC1` [Compound 1, [1-[3-(4-fluorophenoxy)propyl]-4-piperidinyl]methyl 4-amino-5-chloro-2-methoxybenzoate] came in with a melting point of 140 °C.

Regarding `CCCCN1CCC(COC(=O)c2cc(Cl)c(N)c3c2OCCC3)CC1.Cl` [(1-butyl-4-piperidinyl)methyl-5-amino-6-chloro-3,4-dihydro-2-H-1-benzopyran-8-carboxylate hydrochloride], the “5 HT4 receptor activity (agonistic / antagonistic)” value in data set [2] is on record as 5 HT4 receptor antagonistic activity.

For `CCCCN1CCC(COC(=O)c2cc(Cl)c(N)c3c2OCCO3)CC1` [(1-butyl-4-piperidinyl)methyl 8-amino-7-chloro-1,4-benzodioxan-5-carboxylate], the “5 HT4 receptor activity (agonistic / antagonistic)” value in data set [2] was 5 HT4 receptor antagonistic activity.

`CCOC(=O)CCN1CCC(COC(=O)c2cc(Cl)c(N)c3c2OCCO3)CC1` [[1-(2-carbo-ethoxyethyl)-4-piperidinyl]methyl-8-amino-7-chloro-1,4-benzodioxan-5-carboxylate]: the “5 HT4 receptor activity (agonistic / antagonistic)” value in data set [2] is recorded as 5 HT4 receptor antagonistic activity.

As for `CCCCN1CCC(COC(=O)c2cc(Cl)c(N)c3c2OCC3)CC1.Cl` [(1-butyl-4-piperidinyl)methyl-4-amino-5-chloro-2,3-dihydrobenzo[b]furan-7-carboxylate hydrochloride], the “5 HT4 receptor activity (agonistic / antagonistic)” value in data set [2] is listed as 5 HT4 receptor agonistic activity.

Broadly, the melting point is the temperature of the solid-liquid transition.
